Several values for one entry are separate records, joined by “and”; a condition that tells them apart may be missing. Identical values can stand only once.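 Grown in 96-well plates, cells were treated for 48 hours with each compound at five concentrations. Insufficient inhibition: endpoint recorded as highest concentration tested. GI50: concentration for 50% inhibition of growth. The concentration for full growth arrest is given as TGI.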
Tests used:
Assay in all cases: NCI tumour cell line growth inhibition, 48 h
[1] = tested on: MDA-MB-468 breast
[2] = tested on: 786-0 renal
[3] = tested on: HT29 colon
[4] = tested on: NCI-H226 lung
[5] = tested on: SNB-19 CNS
[6] = tested on: EKVX NSCLC
[7] = tested on: SNB-75 CNS
[8] = tested on: HOP-62 NSCLC
[9] = tested on: COLO 205 colon
[10] = tested on: CAKI-1 renal
[11] = tested on: UO-31 renal
[12] = tested on: OVCAR-3 ovarian
[13] = tested on: TK-10 renal
[14] = tested on: HL-60(TB) leukemia
[15] = tested on: HCT-15 colon
[16] = tested on: HOP-92 NSCLC
[17] = tested on: T-47D breast
[18] = tested on: SR leukemia
[19] = tested on: NCI/ADR-RES ovarian
[20] = tested on: SK-MEL-28 melanoma
[21] = tested on: SK-OV-3 ovarian
[22] = tested on: OVCAR-5 ovarian
[23] = tested on: HCC-2998 colon
[24] = tested on: UACC-257 melanoma
[25] = tested on: CCRF-CEM leukemia
[26] = tested on: SF-268 CNS
[27] = tested on: M14 melanoma
[28] = tested on: BT-549 breast
[29] = tested on: SK-MEL-2 melanoma
[30] = tested on: A498 renal
[31] = tested on: IGROV1 ovarian
[32] = tested on: RPMI-8226 leukemia
[33] = tested on: SN12C renal
[34] = tested on: U251 CNS
[35] = tested on: OVCAR-4 ovarian
[36] = tested on: PC-3 prostate
[37] = tested on: KM12 colon
[38] = tested on: NCI-H522 lung
[39] = tested on: SF-295 CNS
[40] = tested on: A549 NSCLC
[41] = tested on: SK-MEL-5 melanoma
[42] = tested on: K-562 leukemia
[43] = tested on: NCI-H23 lung
[44] = tested on: RXF 393 renal
[45] = tested on: HCT-116 colon
[46] = tested on: MDA-MB-435
[47] = tested on: MCF7 breast
[48] = tested on: DU-145 prostate
[49] = tested on: NCI-H460 lung
[50] = tested on: ACHN renal
[51] = tested on: UACC-62 melanoma
[52] = tested on: SF-539 CNS
[53] = tested on: OVCAR-8 ovarian
[54] = tested on: MALME-3M melanoma
[55] = tested on: MOLT-4 leukemia

## COC(=O)C1(C)Cc2cc(OC(C)=O)c(OC(C)=O)cc2N1 (stereo not drawn)
[1]
  GI50: 1.9 µM
  TGI: 6.53 µM

## CCNC(=O)c1noc(-c2cc(C(C)C)c(O)cc2O)c1-c1ccc(CN2CCOCC2)cc1
[1]
  GI50: < 0.01 µM
  TGI: 0.055 µM

## CCCCCCCCCCCCCCCC[N+]1(C)CCOCC1
[1]
  GI50: 0.374 µM
  TGI: 2.16 µM

## COc1cc(NCCCCCCCNC(C)C)c2nccc(C)c2c1
[1]
  GI50: 3.11 µM
  TGI: 14.7 µM

## COc1ccc(C(=O)c2ccc([As]=O)cc2)cc1 (stereo not drawn)
[1]
  GI50: 0.0692 µM
  TGI: 0.242 µM

## CN(C)C(=O)O[C@H]1CN[C@H](C#Cc2cc3ncnc(Nc4ccc(OCc5cccc(F)c5)c(Cl)c4)c3s2)C1
[1]
  GI50: 0.595 µM
  TGI: 5.11 µM

## COc1ccc(OC)c(Cn2cc3c(c2-c2ccccc2)CCc2cnoc2-3)c1
[1]
  GI50: 2.64 µM
  TGI: 11.5 µM

## O=C(Nc1ccc(Cl)c(Cl)c1)NS(=O)(=O)c1cnccc1Oc1ccc(F)cc1
[1]
  GI50: 4.26 µM
  TGI: > 100 µM

## c1ccc2[nH]c(-c3ccc(Nc4nc(N5CCCCC5)nc(N5CCOCC5)n4)cc3)nc2c1
[1]
  GI50: 2.68 µM
  TGI: 6.51 µM

## Cc1ccc(-c2nc3nc(-c4ccc(F)cc4)nc(N4CCCNCC4)c3o2)cc1
[1]
  GI50: 1.58 µM
  TGI: 3.18 µM

## O=C1CCCCN1CCCCC#Cc1cccc(C#Cc2cccnc2)c1
[1]
  GI50: 10.2 µM
  TGI: 28.5 µM

## C/C(=N\NC(=S)Nc1ccc(Br)cc1)c1cc2ccccc2oc1=O
[1]
  GI50: 1.22 µM
  TGI: 5.82 µM

## CN1/C(=C\C=C\C2=[N+](C)c3ccccc3C2(C)C)C(C)(C)c2ccccc21
[1]
  GI50: 0.0217 µM
  TGI: 0.123 µM

## COc1ccc(CN2C3CC2CN(c2ccc(-c4cc(OCC(C)(C)O)cn5ncc(C#N)c45)cn2)C3)cn1
[1]
  GI50: 8.09 µM
  TGI: > 100 µM

## O=S(=O)(CCCl)c1ccc(Cl)cc1
[1]
  GI50: 1.82 µM
  TGI: 5.77 µM

## C=C1C(=O)O[C@H]2[C@H]1CC/C(COC(=O)NCC(C)c1ccc(CC(C)C)cc1)=C\CC[C@@]1(C)O[C@@H]21 (stereo partly drawn)
[1]
  GI50: 0.656 µM
  TGI: 1.84 µM

## C=C1C[C@@H]2CC[C@@]34C[C@H]5O[C@H]6[C@@H](O3)[C@H]3O[C@H](CC[C@@H]3O[C@H]6[C@@H]5O4)CC(=O)C[C@@H]3[C@@H](OC)[C@@H](C[C@H](O)CN)O[C@H]3C[C@H]3O[C@@H](CC[C@@H]1O2)C[C@@H](C)C3=C
[1]
  GI50: < 0.01 µM
  TGI: 0.0661 µM

## O=c1oc2ccc(I)cc2c(=O)n1-c1ccc(Cl)cc1F
[1]
  GI50: 2.11 µM
  TGI: 5.81 µM

## C=C1CC[C@@H]2[C@]3(C)COC(c4cn[nH]c4-c4ccc(F)cc4)O[C@@H]3CC[C@@]2(C)[C@@H]1C/C=C1/C(=O)OCC1O (stereo partly drawn)
[2]
  GI50: 16.6 µM
  TGI: 30.2 µM
[3]
  GI50: 16.4 µM
  TGI: 30.2 µM
[4]
  GI50: 13.1 µM
  TGI: 27.6 µM
[5]
  GI50: 16 µM
  TGI: 29.5 µM
[6]
  GI50: 13.5 µM
  TGI: 26.3 µM
[7]
  GI50: 14.1 µM
  TGI: 43.8 µM
[8]
  GI50: 18.1 µM
  TGI: 34.4 µM
[9]
  GI50: 18.2 µM
  TGI: 35 µM
[10]
  GI50: 21.5 µM
  TGI: 50 µM
[11]
  GI50: 13.7 µM
  TGI: 26.6 µM
[12]
  GI50: 15.9 µM
  TGI: 32.9 µM
[13]
  GI50: 19 µM
  TGI: 33 µM
[14]
  GI50: 12.8 µM
  TGI: 40.2 µM
[15]
  GI50: 14.9 µM
  TGI: 30.5 µM
[16]
  GI50: 14.7 µM
  TGI: 34.9 µM
[17]
  GI50: 15.7 µM
  TGI: 47.7 µM
[18]
  GI50: 16.7 µM
  TGI: 56.4 µM
[19]
  GI50: 17.7 µM
  TGI: 85.9 µM
[20]
  GI50: 16.8 µM
  TGI: 30.4 µM
[21]
  GI50: 21.8 µM
  TGI: 43.5 µM
[22]
  GI50: 18.2 µM
  TGI: 32.2 µM
[23]
  GI50: 16.3 µM
  TGI: 29.8 µM
[24]
  GI50: 22.3 µM
  TGI: 69.2 µM
[25]
  GI50: 4.6 µM
  TGI: 38.5 µM
[26]
  GI50: 20.7 µM
  TGI: 74.9 µM
[27]
  GI50: 16.5 µM
  TGI: 34.1 µM
[28]
  GI50: 13.4 µM
  TGI: 27.5 µM
[29]
  GI50: 16.5 µM
  TGI: 31.6 µM
[30]
  GI50: 17 µM
  TGI: 30.7 µM
[31]
  GI50: 16.4 µM
  TGI: 30.6 µM
[32]
  GI50: 11.5 µM
  TGI: 60.8 µM
[33]
  GI50: 15.4 µM
  TGI: 29.6 µM
[34]
  GI50: 12.9 µM
  TGI: 30.5 µM
[35]
  GI50: 27.5 µM
  TGI: > 100 µM
[36]
  GI50: 15.6 µM
  TGI: 43.9 µM
[37]
  GI50: 22.5 µM
  TGI: 57 µM
[38]
  GI50: 16.7 µM
  TGI: 30.9 µM
[39]
  GI50: 16.6 µM
  TGI: 30.7 µM
[40]
  GI50: 21.4 µM
  TGI: 62.2 µM
[41]
  GI50: 15.5 µM
  TGI: 28.9 µM
[42]
  GI50: 13.1 µM
  TGI: 49.6 µM
[1]
  GI50: 11.9 µM
  TGI: 24.6 µM
[43]
  GI50: 15.6 µM
  TGI: 29.9 µM
[44]
  GI50: 13.7 µM
  TGI: 27 µM
[45]
  GI50: 14.9 µM
  TGI: 28.1 µM
[46]
  GI50: 20.8 µM
  TGI: 52.9 µM
[47]
  GI50: 7.52 µM
  TGI: 22 µM
[48]
  GI50: 19.6 µM
  TGI: 43.5 µM
[49]
  GI50: 19.7 µM
  TGI: 42.7 µM
[50]
  GI50: 15.1 µM
  TGI: 28.4 µM
[51]
  GI50: 14.3 µM
  TGI: 27.3 µM
[52]
  GI50: 14.5 µM
  TGI: 27.6 µM
[53]
  GI50: 23.3 µM
  TGI: > 100 µM
[54]
  GI50: 16 µM
  TGI: 30 µM
[55]
  GI50: 20.2 µM
  TGI: 77.4 µM

## CCCCn1c(-c2ccc(C(=O)O/N=C(\N)c3ccc4c(c3)OCO4)cc2)nc(-c2ccccc2)c1-c1ccccc1
[1]
  GI50: 3.83 µM
  TGI: > 100 µM

## CNC(=O)c1nn(C)c2c1C(C)(C)Cc1cnc(Nc3ccc(N4CCN(C)CC4)cc3)nc1-2
[1]
  GI50: 0.813 µM
  TGI: > 4.2 µM

## O=C1NC(=O)c2c1c1c3ccccc3ccc1c1[nH]c3ccccc3c21
[1]
  GI50: 0.953 µM
  TGI: 8.87 µM

## Nc1ccc(/C=C/C(=O)NCc2cc3cc(-c4ccc(C(=O)N5CCC(F)(F)CC5)cc4)cc(-c4ccc(F)cc4)c3o2)cn1
[1]
  GI50: 22.6 µM
  TGI: > 100 µM

## C(=N\Nc1nnn(Cc2ccccc2)n1)/c1ccccc1
[1]
  GI50: 1.48 µM
  TGI: 11.9 µM

## CCOc1ccc(-c2nnc(C3CC(NC(=O)c4cccc5nccnc45)C3)n2-c2ccccc2F)nc1 (stereo not drawn)
[1]
  GI50: 10 µM
  TGI: 71.5 µM

## O=S(=O)(NCCCNc1nccc(-c2c(-c3ccc(F)cc3)nc3sccn23)n1)c1ccc2ccccc2c1
[1]
  GI50: 3.87 µM
  TGI: > 100 µM

## CN(C)c1ccc(-c2ccc(-c3ccc(C(=N)N)cc3)s2)cc1
[1]
  GI50: 1.94 µM
  TGI: 3.76 µM

## O=C(O)[C@@H](Cc1ccc2ccccc2c1)NC(=O)n1c2ccccc2c2ccccc21
[1]
  GI50: 1.9 µM
  TGI: 7.17 µM

## Cn1cc(C2=C(c3cn(C4CCN(Cc5ccccn5)CC4)c4ccccc34)C(=O)NC2=O)c2ccccc21
[1]
  GI50: 2.08 µM
  TGI: > 100 µM

## O=c1c(F)cn(Cc2ccccc2CCl)c(=O)n1Cc1ccccc1CCl
[1]
  GI50: 0.684 µM
  TGI: 2.27 µM

## CCc1c2c(nc3ccc(OC(=O)N4CCC(N5CCCCC5)CC4)cc13)-c1cc3c(c(=O)n1C2)COC(=O)[C@]3(O)CC
[1]
  TGI: 1.79 µM and 1.51 µM and 5.77 µM

## C=C1C(=O)O[C@H]2[C@H]1CC/C(C=Nc1c(N)cc(C(F)(F)F)cc1Br)=C\CC[C@@]1(C)O[C@@H]21
[1]
  GI50: 1.88 µM
  TGI: 4.19 µM

## O=C(N/N=C/c1ccccc1O)c1ccccc1
[1]
  GI50: 0.292 µM
  TGI: > 100 µM

## O=C1OCC2=C1C(c1ccccc1)c1cc3c(cc1N2CCO)OCO3 (stereo not drawn)
[1]
  GI50: 1.22 µM
  TGI: 4.61 µM

## CCC1=CC2CN(C1)Cc1c([nH]c3ccccc13)[C@@](C(=O)OC)(c1cc3c(cc1OC)N(C)[C@H]1[C@@](O)(C(=O)OC)[C@H](OC(C)=O)[C@]4(CC)C=CCN5CC[C@]31[C@@H]54)C2 (stereo partly drawn)
[1]
  TGI: 21 µM

## OC(c1cc2ccc(C(F)(F)F)cc2c2cc(C(F)(F)F)ccc12)C1CCCCN1 (stereo not drawn)
[1]
  GI50: 1.6 µM
  TGI: 3.09 µM

— PubChem BioAssay (NCI)
